{"source": "patent US20250197377A1", "about": "“NOVEL PHARMACEUTICAL SALTS AND POLYMORPHIC FORMS OF AN ERBB AND BTK INHIBITOR” (DIZAL (JIANGSU) PHARMACEUTICAL CO., LTD., priority 2021, published 2025)", "key": {"[1]": {"experiment": "Solubility in bio-relevant media", "type": "physicochemical", "conditions": "for pH value at 24 h: solubility sample at 24 h"}, "3T3_YVMA": {"test_system": "3T3_YVMA", "experiment": "In vitro cell based assay, anti-proliferation GI50, 3T3_YVMA", "conditions": "HER2 A775_G776insYVMA"}, "A431": {"test_system": "A431", "experiment": "In vitro cell based assay, anti-proliferation GI50, A431", "conditions": "EGFR Wildtype"}, "EGFR Wildtype": {"molecular_target": "T1, EGFR Wildtype (Homo sapiens, UniProt P00533)", "T1 construct": "Form A and B in vitro cell based assay; endogenous in cells; host or cells: A431", "experiment": "In vitro cell based assay, PD IC50, A431"}, "[2]": {"experiment": "Dynamic moisture sorption analysis (DVS)", "type": "physicochemical", "protocol": "DVS was determined using DVS Advantage-1 or Intrinsic (SMS, UK). The sample was tested at a targeted RH of 10 to 90% full cycle in step mode. The analysis was performed in 10% RH increments. Equilibrium:60 min RH (%) measurement points: First cycle: 0, 10, 20, 30, 40, 50, 60, 70, 80, 90. Second cycle: 90, 80, 70, 60, 50, 40, 30, 20, 10, 0."}, "[3]": {"experiment": "Water activity study of Form A and Form B (slurry, XRPD)", "type": "physicochemical", "conditions": "24~27° C. (before dry)", "protocol": "To study the effects of water on the stability of Form A and Form B, slurry experiments in the systems with different water activity were carried out. Form A or Form B was suspended separately in different water activity systems (Table 4). […] Residual solids were filtered and then dried in the vacuum oven at 45° C. for 8-24 hours. Dry solids were characterized by XRPD."}, "PC-9": {"test_system": "PC-9", "experiment": "In vitro cell based assay, anti-proliferation GI50, PC-9", "conditions": "EGFR 19Del"}, "[4]": {"experiment": "Solubility in organic solvents and water", "type": "physicochemical", "conditions": "r.t."}, "[5]": {"experiment": "Form A and Form B inter-conversion study (competitive slurry, XRPD)", "type": "physicochemical", "protocol": "Competitive slurry experiments were conducted to evaluate the relative stability of Form A and Form B. Inter-conversion study was performed at room temperature and 50° C. using single and binary solvents listed in the Table 1 below. About 80 mg (100 mg for 50° C.) of Form A and Form B (1:1, w/w) was weighed into sample vials (8 mL) and then 3 mL (2 mL for 50° C.) of solvents were added to each vial. The obtained suspensions were kept stirring for 7 days at room temperature and 50° C., then filtered at specified time. The wet and dried solids were analyzed by XRPD (dried in vacuum oven at 45° C.).\nForm B was dominant in tested solvent systems with water activity below 0.15 at room temperature (24˜27° C.). […] Pure Form A and Form B were stable during drying process (50° C., vacuum) for at least 2 days."}, "Ba/F3_NPH": {"test_system": "Ba/F3_NPH", "experiment": "In vitro cell based assay, anti-proliferation GI50, Ba/F3_NPH", "conditions": "EGFR H773_V774insNPH"}, "EGFR 19Del": {"molecular_target": "T2, EGFR 19Del (Homo sapiens, UniProt P00533, DEL746-750)", "T2 construct": "Form A and B in vitro cell based assay; endogenous in cells; host or cells: PC-9", "T2 sequence (P00533 with tags, fused parts or gaps DEL746-750)": "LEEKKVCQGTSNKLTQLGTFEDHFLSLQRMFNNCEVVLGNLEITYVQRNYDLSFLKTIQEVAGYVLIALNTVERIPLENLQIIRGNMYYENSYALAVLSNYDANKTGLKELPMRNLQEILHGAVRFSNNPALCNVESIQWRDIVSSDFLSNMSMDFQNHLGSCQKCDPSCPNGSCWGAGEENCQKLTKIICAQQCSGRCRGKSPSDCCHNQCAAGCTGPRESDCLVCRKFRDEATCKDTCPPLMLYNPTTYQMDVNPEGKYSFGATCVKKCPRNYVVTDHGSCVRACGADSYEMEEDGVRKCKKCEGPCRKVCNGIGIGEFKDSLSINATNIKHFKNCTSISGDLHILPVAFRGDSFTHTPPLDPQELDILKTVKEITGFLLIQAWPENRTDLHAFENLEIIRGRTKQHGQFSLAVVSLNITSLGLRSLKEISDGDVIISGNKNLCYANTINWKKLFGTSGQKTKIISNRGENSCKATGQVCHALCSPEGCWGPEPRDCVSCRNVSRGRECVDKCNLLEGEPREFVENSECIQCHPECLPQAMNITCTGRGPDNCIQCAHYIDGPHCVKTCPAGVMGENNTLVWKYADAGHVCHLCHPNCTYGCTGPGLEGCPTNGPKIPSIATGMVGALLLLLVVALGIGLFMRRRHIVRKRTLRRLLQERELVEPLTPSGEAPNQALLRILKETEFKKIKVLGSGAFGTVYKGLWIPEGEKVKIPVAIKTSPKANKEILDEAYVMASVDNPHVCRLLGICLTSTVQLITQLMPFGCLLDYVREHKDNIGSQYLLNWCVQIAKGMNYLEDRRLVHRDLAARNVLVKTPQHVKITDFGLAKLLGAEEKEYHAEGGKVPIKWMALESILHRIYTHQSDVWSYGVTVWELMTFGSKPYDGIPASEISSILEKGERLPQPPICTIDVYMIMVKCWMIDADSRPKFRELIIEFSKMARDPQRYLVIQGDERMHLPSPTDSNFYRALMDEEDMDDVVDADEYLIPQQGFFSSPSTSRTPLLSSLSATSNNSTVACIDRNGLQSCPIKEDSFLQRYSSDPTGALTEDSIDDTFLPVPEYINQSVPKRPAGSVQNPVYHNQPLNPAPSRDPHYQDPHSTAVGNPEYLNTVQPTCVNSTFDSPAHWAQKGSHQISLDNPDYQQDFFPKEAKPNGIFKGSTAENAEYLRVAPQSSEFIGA", "experiment": "In vitro cell based assay, PD IC50, PC-9"}, "EGFR H773_V774insNPH": {"molecular_target": "T3, EGFR H773_V774insNPH (Homo sapiens, UniProt P00533, INS773NPH)", "T3 construct": "expressed in transfected cells; host or cells: Ba/F3 (Ba/F3_NPH)", "T3 sequence (P00533 with tags, fused parts or gaps INS773NPH)": "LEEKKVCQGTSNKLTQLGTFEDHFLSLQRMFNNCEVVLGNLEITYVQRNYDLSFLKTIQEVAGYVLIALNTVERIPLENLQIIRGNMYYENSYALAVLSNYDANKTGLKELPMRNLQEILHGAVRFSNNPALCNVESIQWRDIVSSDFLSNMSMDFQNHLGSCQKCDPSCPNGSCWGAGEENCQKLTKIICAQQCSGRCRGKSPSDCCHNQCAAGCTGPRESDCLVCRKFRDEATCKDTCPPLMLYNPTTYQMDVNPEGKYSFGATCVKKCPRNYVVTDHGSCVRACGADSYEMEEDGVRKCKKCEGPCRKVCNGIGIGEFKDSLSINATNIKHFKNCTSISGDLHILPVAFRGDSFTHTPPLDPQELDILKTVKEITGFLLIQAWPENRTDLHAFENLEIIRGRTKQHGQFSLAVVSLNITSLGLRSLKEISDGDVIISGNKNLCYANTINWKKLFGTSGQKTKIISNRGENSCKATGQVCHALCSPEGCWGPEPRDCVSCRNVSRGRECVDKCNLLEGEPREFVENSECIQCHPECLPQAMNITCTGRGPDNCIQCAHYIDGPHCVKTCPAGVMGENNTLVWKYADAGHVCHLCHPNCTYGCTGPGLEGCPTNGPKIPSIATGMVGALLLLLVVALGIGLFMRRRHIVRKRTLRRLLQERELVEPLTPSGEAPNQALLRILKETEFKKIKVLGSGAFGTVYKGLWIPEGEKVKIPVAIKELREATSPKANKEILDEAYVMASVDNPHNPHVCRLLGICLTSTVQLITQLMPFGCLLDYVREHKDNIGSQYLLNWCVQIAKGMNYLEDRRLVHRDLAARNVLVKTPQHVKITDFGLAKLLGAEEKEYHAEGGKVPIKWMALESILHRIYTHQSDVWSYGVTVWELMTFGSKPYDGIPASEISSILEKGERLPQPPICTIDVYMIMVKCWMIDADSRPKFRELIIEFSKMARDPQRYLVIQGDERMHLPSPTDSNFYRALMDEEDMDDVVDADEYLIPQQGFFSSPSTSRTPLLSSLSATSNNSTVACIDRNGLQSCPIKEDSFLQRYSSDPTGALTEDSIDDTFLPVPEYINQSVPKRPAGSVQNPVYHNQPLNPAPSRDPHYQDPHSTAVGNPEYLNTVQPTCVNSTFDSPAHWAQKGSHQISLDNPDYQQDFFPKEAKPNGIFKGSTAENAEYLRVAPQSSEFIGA", "experiment": "In vitro cell based assay, PD IC50, Ba/F3_NPH"}, "EGFR L858R/T790M": {"molecular_target": "T4, EGFR L858R/T790M (Homo sapiens, UniProt P00533, L858R/T790M)", "T4 construct": "Form A and B in vitro cell based assay; endogenous in cells; host or cells: NCI-H1975", "T4 sequence (P00533 25-1210 T790M/L858R)": "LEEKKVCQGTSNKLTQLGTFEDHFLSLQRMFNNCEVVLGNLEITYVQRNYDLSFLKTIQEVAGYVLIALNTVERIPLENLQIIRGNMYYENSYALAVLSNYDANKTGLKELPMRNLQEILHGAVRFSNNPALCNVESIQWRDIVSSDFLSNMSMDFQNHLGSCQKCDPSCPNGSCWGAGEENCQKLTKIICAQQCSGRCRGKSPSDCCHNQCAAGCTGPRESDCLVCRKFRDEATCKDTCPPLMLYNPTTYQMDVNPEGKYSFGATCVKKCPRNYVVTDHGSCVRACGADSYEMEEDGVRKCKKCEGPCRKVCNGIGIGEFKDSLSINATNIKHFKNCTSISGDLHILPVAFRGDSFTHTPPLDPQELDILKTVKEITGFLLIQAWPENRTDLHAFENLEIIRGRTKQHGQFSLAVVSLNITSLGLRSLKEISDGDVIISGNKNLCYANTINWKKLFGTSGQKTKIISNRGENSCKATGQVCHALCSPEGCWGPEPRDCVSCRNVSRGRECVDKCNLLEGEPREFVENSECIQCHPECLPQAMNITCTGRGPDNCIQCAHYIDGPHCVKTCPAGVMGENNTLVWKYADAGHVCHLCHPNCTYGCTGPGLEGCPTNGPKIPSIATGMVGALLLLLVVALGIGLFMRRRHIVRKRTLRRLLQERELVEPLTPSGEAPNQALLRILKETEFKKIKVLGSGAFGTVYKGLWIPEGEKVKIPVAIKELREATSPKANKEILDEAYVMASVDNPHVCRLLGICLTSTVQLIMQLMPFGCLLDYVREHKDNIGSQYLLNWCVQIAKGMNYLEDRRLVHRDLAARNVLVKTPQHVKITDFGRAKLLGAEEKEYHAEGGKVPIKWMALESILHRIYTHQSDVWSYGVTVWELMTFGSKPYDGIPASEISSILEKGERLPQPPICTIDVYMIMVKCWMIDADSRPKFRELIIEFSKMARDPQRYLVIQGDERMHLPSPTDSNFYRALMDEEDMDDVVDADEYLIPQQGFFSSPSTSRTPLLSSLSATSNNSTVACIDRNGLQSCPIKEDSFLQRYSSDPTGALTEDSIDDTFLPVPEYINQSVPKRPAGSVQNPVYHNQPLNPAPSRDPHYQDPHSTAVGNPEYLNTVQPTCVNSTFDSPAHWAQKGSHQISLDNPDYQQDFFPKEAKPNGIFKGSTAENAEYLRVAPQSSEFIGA", "experiment": "In vitro cell based assay, PD IC50, NCI-H1975"}, "[6]": {"experiment": "Milling study of Form B (grinding and jet milling)", "type": "physicochemical", "protocol": "Grinding and jet milling were carried out. About 10 mg Form B was added into mortar and grinded by pestle for 1 min and 2 min. Jet milling of Form B in 500 mg scale was performed. Samples before and after grinding and milling were analyzed by XRPD. • Instrument: Jet mill (Equipment number: PPD-OAJ-1) • Feeding speed: Manual • Feeding pressure: 0.3˜0.6 MPa • Milling One Pressure: 0.4˜0.8 MPa • Milling Two Pressure: 0.4˜0.8 MPa\nGrinding and jet milling were carried out to test physical stability of Form B in the milling process. As shown in XRPD results of obtained solids after grinding (FIG. 25), jet milling (FIG. 24), and DSC profile after jet milling (FIG. 26), the crystallinity decreased after grinding, but the crystal form of Form B was unchanged after milling and grinding."}, "[7]": {"experiment": "PK study of Form A and Form B in Dog", "type": "in vivo", "conditions": "10 mg/kg"}, "[8]": {"experiment": "Stability in storage for Form B (XRPD, DSC)", "type": "physicochemical", "conditions": "stored at 2-8° C. for at least 20 d"}, "HER2 A775_G776insYVMA": {"molecular_target": "T5, HER2 A775_G776insYVMA (Homo sapiens, UniProt P04626, INS775YVMA)", "T5 construct": "expressed in transfected cells; host or cells: 3T3 (3T3_YVMA)", "T5 sequence (P04626 with tags, fused parts or gaps INS775YVMA)": "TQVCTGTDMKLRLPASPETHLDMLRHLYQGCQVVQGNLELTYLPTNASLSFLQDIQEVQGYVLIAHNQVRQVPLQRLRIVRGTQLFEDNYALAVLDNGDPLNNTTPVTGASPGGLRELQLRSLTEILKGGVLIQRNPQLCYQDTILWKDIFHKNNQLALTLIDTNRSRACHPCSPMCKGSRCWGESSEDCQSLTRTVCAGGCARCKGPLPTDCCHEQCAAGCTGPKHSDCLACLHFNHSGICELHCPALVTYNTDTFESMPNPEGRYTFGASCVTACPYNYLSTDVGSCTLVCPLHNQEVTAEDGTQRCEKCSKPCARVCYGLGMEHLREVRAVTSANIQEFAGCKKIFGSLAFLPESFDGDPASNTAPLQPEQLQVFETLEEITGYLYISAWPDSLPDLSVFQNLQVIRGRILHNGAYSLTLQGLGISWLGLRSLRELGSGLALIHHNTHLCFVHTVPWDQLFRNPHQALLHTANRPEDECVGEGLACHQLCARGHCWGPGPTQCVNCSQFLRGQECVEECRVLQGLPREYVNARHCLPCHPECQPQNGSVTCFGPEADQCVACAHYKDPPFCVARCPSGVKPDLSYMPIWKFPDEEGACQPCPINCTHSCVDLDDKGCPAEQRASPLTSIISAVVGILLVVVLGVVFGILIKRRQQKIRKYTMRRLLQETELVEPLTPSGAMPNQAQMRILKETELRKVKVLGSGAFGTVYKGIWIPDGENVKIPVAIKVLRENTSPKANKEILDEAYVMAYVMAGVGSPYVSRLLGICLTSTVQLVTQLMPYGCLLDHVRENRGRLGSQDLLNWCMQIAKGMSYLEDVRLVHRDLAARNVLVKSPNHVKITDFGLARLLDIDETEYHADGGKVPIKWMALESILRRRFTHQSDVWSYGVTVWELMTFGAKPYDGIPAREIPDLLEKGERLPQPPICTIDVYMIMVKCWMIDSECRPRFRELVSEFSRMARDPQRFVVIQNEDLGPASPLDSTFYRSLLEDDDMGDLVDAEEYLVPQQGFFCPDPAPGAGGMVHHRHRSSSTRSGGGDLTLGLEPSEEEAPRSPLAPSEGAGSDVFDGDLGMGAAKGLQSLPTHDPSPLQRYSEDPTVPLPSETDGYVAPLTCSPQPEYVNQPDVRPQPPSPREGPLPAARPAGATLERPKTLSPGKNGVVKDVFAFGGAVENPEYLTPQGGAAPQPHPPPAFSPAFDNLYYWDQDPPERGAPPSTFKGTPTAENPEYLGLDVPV", "experiment": "In vitro cell based assay, PD IC50, 3T3_YVMA"}, "NCI-H1975": {"test_system": "NCI-H1975", "experiment": "In vitro cell based assay, anti-proliferation GI50, NCI-H1975", "conditions": "EGFR L858R/T790M"}, "[9]": {"experiment": "PK study of Form A and Form B in Rat", "type": "in vivo"}}, "note": "Several values for one entry are separate records, joined by “and”; a condition that tells them apart may be missing. Equal values may be shown once."}
{"molecule": "C=CC(=O)Nc1cc(Nc2nccc(Nc3cc(Cl)c(F)cc3C(C)(C)O)n2)c(OC)cc1N1CC[C@@H](N(C)C)C1", "note": "[Form B, (R)-N-(5-((4-((5-chloro-4-fluoro-2-(2-hydroxypropan-2-yl)phenyl)amino)pyrimidin-2-yl)amino)-2-(3-(dimethylamino)pyrrolidin-1-yl)-4-methoxyphenyl)acrylamide]", "values": [{"measurement": "solubility at 0.5 h", "setting": "[1]; FaSSIF", "value": 150, "unit": "µg/mL"}, {"measurement": "solubility at 2 h", "setting": "[1]; FaSSIF, 2 h", "value": 160, "unit": "µg/mL"}, {"measurement": "solubility at 24 h", "setting": "[1]; FaSSIF, 24 h", "value": 240, "unit": "µg/mL"}, {"measurement": "pH value at 24 h", "setting": "[1]; FaSSIF", "value": 6.43}, {"measurement": "solubility at 0.5 h", "setting": "[1]; FeSSIF", "value": 3180, "unit": "µg/mL"}, {"measurement": "Solubility", "setting": "[1]; FeSSIF, 2 h", "value": 2290, "unit": "µg/mL"}, {"measurement": "solubility at 24 h", "setting": "[1]; FeSSIF, 24 h", "value": 11200, "unit": "µg/mL"}, {"measurement": "pH value at 24 h", "setting": "[1]; FeSSIF", "value": 5.50}, {"measurement": "solubility at 0.5 h", "setting": "[1]; SGF, simulated gastric fluid", "value": 23500, "unit": "µg/mL"}, {"measurement": "solubility at 2 h", "setting": "[1]; SGF, simulated gastric fluid, 2 h", "value": 24200, "unit": "µg/mL"}, {"measurement": "solubility at 24 h", "setting": "[1]; SGF, simulated gastric fluid, 24 h", "value": 25800, "unit": "µg/mL"}, {"measurement": "pH value at 24 h", "setting": "[1]; SGF", "value": 5.15}, {"measurement": "solubility at 0.5 h", "setting": "[1]; SIF, fassgf or other biorelevant", "value": 18, "unit": "µg/mL"}, {"measurement": "solubility at 2 h", "setting": "[1]; SIF, fassgf or other biorelevant, 2 h", "value": 25, "unit": "µg/mL"}, {"measurement": "Solubility", "setting": "[1]; SIF, 24 h", "value": 520, "unit": "µg/mL"}, {"measurement": "pH value at 24 h", "setting": "[1]; SIF", "value": 6.67}, {"measurement": "GI50", "setting": "3T3_YVMA", "value": 44.5, "unit": "nM"}, {"measurement": "GI50", "setting": "A431", "value": 45.9, "unit": "nM"}, {"measurement": "IC50", "setting": "EGFR Wildtype", "value": 54.1, "unit": "nM"}, {"measurement": "DVS (ΔW %, 80% RH)", "setting": "[2]", "value": 0.04, "unit": "%"}, {"measurement": "XRPD results of slurry in different water activity solvent", "setting": "[3]; 0% water/acetone, water activity 0, 1 d", "value": "Form B"}, {"measurement": "XRPD results of slurry in different water activity solvent", "setting": "[3]; 0% water/acetone, water activity 0, 3 d", "value": "Form B"}, {"measurement": "XRPD results of slurry in different water activity solvent", "setting": "[3]; 0% water/acetone, water activity 0, 7 d", "value": "Form B"}, {"measurement": "XRPD results of slurry in different water activity solvent", "setting": "[3]; 3% water/acetone, water activity 0.312, 3 d", "value": "Form B"}, {"measurement": "XRPD results of slurry in different water activity solvent", "setting": "[3]; 3% water/acetone, water activity 0.312, 7 d", "value": "Form B"}, {"measurement": "XRPD results of slurry in different water activity solvent", "setting": "[3]; 30% water/acetone, water activity 0.747, 1 d", "value": "Form B"}, {"measurement": "XRPD results of slurry in different water activity solvent", "setting": "[3]; 30% water/acetone, water activity 0.747, 3 d", "value": "Form B"}, {"measurement": "XRPD results of slurry in different water activity solvent", "setting": "[3]; 30% water/acetone, water activity 0.747, 7 d", "value": "Form B"}, {"measurement": "XRPD results of slurry in different water activity solvent", "setting": "[3]; water, 7 d", "value": "Form B"}, {"measurement": "GI50", "setting": "PC-9", "value": 4.23, "unit": "nM"}, {"measurement": "Solubility", "setting": "[4]; Acetone", "value": "S < 5.88 mg/ml"}, {"measurement": "Solubility", "setting": "[4]; Acetonitrile", "value": "S < 0.97 mg/ml"}, {"measurement": "Solubility", "setting": "[4]; Ethyl acetate", "value": "S < 1.06 mg/ml"}, {"measurement": "Solubility", "setting": "[4]; Isopropanol", "value": "S ~ 4.677 mg/ml"}, {"measurement": "Solubility", "setting": "[4]; MTBE", "value": "S < 1.57 mg/ml"}, {"measurement": "Solubility", "setting": "[4]; MeOH", "value": "24.00 < S mg/ml"}, {"measurement": "Solubility", "setting": "[4]; THF", "value": "12.70 < S mg/ml"}, {"measurement": "Solubility", "setting": "[4]; water", "value": "S < 2.73 mg/ml"}, {"measurement": "Stability of pure form during drying process", "setting": "[5]; 50° C., vacuum, at least 2 days", "value": "stable"}, {"measurement": "Relative stability of Form A and Form B in competitive slurry", "setting": "[5]; 50° C., all the tested solvent systems except pure water", "value": "more stable than Form A"}, {"measurement": "Relative stability of Form A and Form B in competitive slurry", "setting": "[5]; tested solvent systems with water activity below 0.15, room temperature (24~27° C.)", "value": "dominant"}, {"measurement": "GI50", "setting": "Ba/F3_NPH", "value": 66.3, "unit": "nM"}, {"measurement": "IC50", "setting": "EGFR 19Del", "value": 2.29, "unit": "nM"}, {"measurement": "IC50", "setting": "EGFR H773_V774insNPH", "value": 35.2, "unit": "nM"}, {"measurement": "IC50", "setting": "EGFR L858R/T790M", "value": 2.07, "unit": "nM"}, {"measurement": "Crystallinity after grinding (XRPD)", "setting": "[6]; grinding", "value": "decreased"}, {"measurement": "Crystal form after milling and grinding (XRPD, DSC)", "setting": "[6]; grinding 1 min and 2 min, jet milling", "value": "unchanged"}, {"measurement": "AUC0-24 h", "setting": "[7]; Female (individual animals)", "value": "3.14 hr*μM/(mg/kg) and 3.75 hr*μM/(mg/kg)"}, {"measurement": "AUC0-24 h", "setting": "[7]; Male (individual animals)", "value": "2.88 hr*μM/(mg/kg) and 5.29 hr*μM/(mg/kg)"}, {"measurement": "Form change after storage (XRPD, DSC)", "setting": "[8]", "value": "no form change observed"}, {"measurement": "IC50", "setting": "HER2 A775_G776insYVMA", "value": 3.26, "unit": "nM"}, {"measurement": "GI50", "setting": "NCI-H1975", "value": 1.45, "unit": "nM"}, {"measurement": "Mean AUC0~48", "setting": "[9]; 25 mg/kg", "value": 2678, "unit": "ng·h/mL"}, {"measurement": "Mean Cmax", "setting": "[9]; 25 mg/kg", "value": 299, "unit": "ng/mL"}, {"measurement": "Mean t1/2", "setting": "[9]; 25 mg/kg", "value": 4.1, "unit": "h"}, {"measurement": "Median Tmax", "setting": "[9]; 25 mg/kg", "value": 8.0, "unit": "h"}, {"measurement": "Mean AUC0~48", "setting": "[9]; 75 mg/kg", "value": 8433, "unit": "ng·h/mL"}, {"measurement": "Mean Cmax", "setting": "[9]; 75 mg/kg", "value": 672, "unit": "ng/mL"}, {"measurement": "Mean t1/2", "setting": "[9]; 75 mg/kg", "value": 5.8, "unit": "h"}, {"measurement": "Median Tmax", "setting": "[9]; 75 mg/kg", "value": 4.0, "unit": "h"}]}
